{
  "source": "patent EP0232650B1",
  "about": "“Analogues of hypocalcemic polypeptide compounds preserving the calcium content of the body, their manufacture, their use as medicaments and the compositions thereof” (MILHAUD, Gérard, priority 1985, dated 1989)",
  "assay": "Hypocalcemic activity in the fasted male rat (fall in calcemia one hour after intravenous injection, compared with Research Standard B)",
  "type": "in vivo",
  "conditions": "male rat 100-120 g, fasted 16 hours, peptide diluted in sodium acetate buffer 0,1 N pH 6 with 0,1 % albumin, versus \"Research Standard B\"",
  "text": "Elle est déterminée chez le rat mâle pesant de 100 à 120 g et soumis à un jeûne de 16 heures. L'activité est exprimée en unité MRC à partir de la baisse de la calcémie, mesurée une heure après l'injection intraveineuse de peptide à tester convenablement dilué en tampon acétate de sodium 0,1 N pH 6 et 0,1 % d'albumine, par comparaison avec l'activité du \"Research Standard B\" convenablement dilué. L'activité biologique du peptide de l'exemple 1 est supérieure à 4000 unités MRC par mg et celle du peptide de l'exemple 2 est supérieure à 4500 unités MRC par mg.",
  "note": "Where a SMILES comes first, the peptide text is derived from it. Bridges are numbered along the chain shown (N, C = ends).",
  "data": [
    {"molecule": "CC(C)C[C@H](NC(=O)[C@H](CCCCN)NC(=O)CNC(=O)[C@H](CC(C)C)NC(=O)[C@@H](NC(=O)[C@@H]1CSSC[C@H](N)C(=O)N[C@@H](CC(N)=O)C(=O)N[C@@H](CO)C(=O)N[C@@H](CC(C)C)C(=O)N[C@@H](CO)C(=O)N[C@@H]([C@@H](C)O)C(=O)N1)C(C)C)C(=O)N[C@@H](CO)C(=O)N[C@@H](CCC(N)=O)C(=O)N[C@@H](CCC(=O)O)C(=O)N[C@@H](CC(C)C)C(=O)N[C@@H](Cc1c[nH]cn1)C(=O)N[C@@H](CCCCN)C(=O)N[C@@H](CC(C)C)C(=O)N[C@@H](CCC(N)=O)C(=O)N[C@H](C(=O)N[C@@H](Cc1ccc(O)cc1)C(=O)N1CCC[C@H]1C(=O)N[C@@H](CCCNC(=N)N)C(=O)N[C@H](C(=O)N[C@@H](CC(=O)O)C(=O)N[C@H](C(=O)NCC(=O)N[C@@H](C)C(=O)NCC(=O)N[C@H](C(=O)N1CCC[C@H]1C(N)=O)[C@@H](C)O)C(C)C)[C@@H](C)O)[C@@H](C)O", "note": "[exemple 1, Cys - Asn - Ser - Leu - Sers - Thr - Cys - Val - Leu - Glyio - Lys - Leu - Ser - Gin - Glu1s - Leu - His - Lys - Leu - Gln20- Thr - Tyr - Pro - Arg - Thr25- Asp - Val - Gly - Ala - Gly30 - Thr - Proamide] (H-CNSLSTCVLGKLSQELHKLQTYPRTDVGAGTP-NH2; disulfide 1-7)", "values": [
      {"measurement": "activité biologique", "value": "> 4000", "unit": "unités MRC par mg"}
    ]}
  ]
}
